What was measured:
[1] = xn = mol fraction of the nth substance listed; conditions: 101.3 kPa, Liquid
[2] = excess molar enthalpy (molar enthalpy of mixing); xn = mol fraction of the nth substance listed; conditions: 318.15 K, 101.3 kPa, Liquid

CCCCCCCCCC [decane] + COC(=O)OC
[1]
Conditions | mass density [kg/m3]
298.15 K, x2 = 0 | 726.2
298.15 K, x2 = 0.0043 | 726.8
298.15 K, x2 = 0.0235 | 729.1
298.15 K, x2 = 0.0888 | 737.6
298.15 K, x2 = 0.1363 | 744.6
298.15 K, x2 = 0.1922 | 753.4
298.15 K, x2 = 0.2402 | 761.6
298.15 K, x2 = 0.3348 | 779.8
298.15 K, x2 = 0.4201 | 798.8
298.15 K, x2 = 0.4876 | 816
298.15 K, x2 = 0.5607 | 837.1
298.15 K, x2 = 0.6214 | 856.8
298.15 K, x2 = 0.6754 | 876.5
298.15 K, x2 = 0.7219 | 895.2
298.15 K, x2 = 0.7702 | 916.6
298.15 K, x2 = 0.8104 | 936.3
298.15 K, x2 = 0.8421 | 953.4
298.15 K, x2 = 0.8849 | 978.5
298.15 K, x2 = 0.9135 | 997
298.15 K, x2 = 0.9424 | 1017.3
298.15 K, x2 = 0.9709 | 1039
303.15 K, x2 = 0 | 722.3
303.15 K, x2 = 0.0489 | 728.4
303.15 K, x2 = 0.0996 | 735.2
303.15 K, x2 = 0.1998 | 750.3
303.15 K, x2 = 0.299 | 768.1
303.15 K, x2 = 0.3991 | 789.2
303.15 K, x2 = 0.4992 | 814.3
303.15 K, x2 = 0.6023 | 845.3
303.15 K, x2 = 0.7013 | 881.5
303.15 K, x2 = 0.8008 | 925.9
303.15 K, x2 = 0.9012 | 982.6
303.15 K, x2 = 0.9505 | 1016.6
313.15 K, x2 = 0 | 714.7
313.15 K, x2 = 0.0489 | 720.6
313.15 K, x2 = 0.0996 | 727.2
313.15 K, x2 = 0.1998 | 742
313.15 K, x2 = 0.299 | 759.4
313.15 K, x2 = 0.3991 | 780.1
313.15 K, x2 = 0.4992 | 804.7
313.15 K, x2 = 0.6023 | 835.2
313.15 K, x2 = 0.7013 | 870.6
313.15 K, x2 = 0.8008 | 914.4
313.15 K, x2 = 0.9012 | 970.3
313.15 K, x2 = 0.9505 | 1003.6
318.15 K, x2 = 0 | 710.9
318.15 K, x2 = 0.0902 | 722.1
318.15 K, x2 = 0.1142 | 725.4
318.15 K, x2 = 0.1922 | 736.9
318.15 K, x2 = 0.3283 | 760.8
318.15 K, x2 = 0.4184 | 780
318.15 K, x2 = 0.4855 | 796.3
318.15 K, x2 = 0.4962 | 799.1
318.15 K, x2 = 0.5666 | 818.8
318.15 K, x2 = 0.6142 | 833.9
318.15 K, x2 = 0.6732 | 854.3
318.15 K, x2 = 0.728 | 875.8
318.15 K, x2 = 0.7735 | 895.6
318.15 K, x2 = 0.8087 | 912.6
318.15 K, x2 = 0.8503 | 934.4
318.15 K, x2 = 0.8944 | 960.1
318.15 K, x2 = 0.9252 | 980
318.15 K, x2 = 0.9473 | 995.6
318.15 K, x2 = 0.9768 | 1017.9

[2]
Conditions | excess molar enthalpy [kcal/mol]
x2 = 0 | 0
x2 = 0.0948 | 0.19
x2 = 0.1964 | 0.341
x2 = 0.29 | 0.453
x2 = 0.3757 | 0.524
x2 = 0.4516 | 0.561
x2 = 0.5089 | 0.572
x2 = 0.5556 | 0.573
x2 = 0.5944 | 0.568
x2 = 0.6291 | 0.56
x2 = 0.6358 | 0.556
x2 = 0.6748 | 0.539
x2 = 0.7141 | 0.518
x2 = 0.7558 | 0.484
x2 = 0.7914 | 0.445
x2 = 0.8294 | 0.393
x2 = 0.8725 | 0.33
x2 = 0.9085 | 0.255
x2 = 0.9429 | 0.174
x2 = 0.9788 | 0.0741

COC(=O)OC [dimethyl carbonate] + CCCCCC
[1]
Conditions | mass density [kg/m3]
293.15 K, x1 = 0.0722 | 677.3
293.15 K, x1 = 0.1448 | 696.6
293.15 K, x1 = 0.2286 | 720.8
293.15 K, x1 = 0.3026 | 744
293.15 K, x1 = 0.4102 | 780.8
293.15 K, x1 = 0.5062 | 817
293.15 K, x1 = 0.6026 | 857.1
293.15 K, x1 = 0.7052 | 904
293.15 K, x1 = 0.7974 | 950.5
293.15 K, x1 = 0.901 | 1008.3
293.15 K, x1 = 0.9506 | 1038.5
293.15 K, x1 = 1 | 1070
298.15 K, x1 = 0.082 | 674.9
298.15 K, x1 = 0.1269 | 686.7
298.15 K, x1 = 0.2131 | 710.9
298.15 K, x1 = 0.3197 | 744.1
298.15 K, x1 = 0.3787 | 764
298.15 K, x1 = 0.4712 | 797.6
298.15 K, x1 = 0.5121 | 813.4
298.15 K, x1 = 0.6067 | 852.6
298.15 K, x1 = 0.6987 | 894.5
298.15 K, x1 = 0.842 | 967.9
298.15 K, x1 = 0.9248 | 1015.9
298.15 K, x1 = 0.9615 | 1038.7
298.15 K, x1 = 1 | 1063.5
303.15 K, x1 = 0.0468 | 661.4
303.15 K, x1 = 0.0991 | 674.5
303.15 K, x1 = 0.1951 | 700.4
303.15 K, x1 = 0.295 | 730.4
303.15 K, x1 = 0.3832 | 759.5
303.15 K, x1 = 0.4865 | 797.1
303.15 K, x1 = 0.5899 | 838.7
303.15 K, x1 = 0.696 | 886.3
303.15 K, x1 = 0.7947 | 935.5
303.15 K, x1 = 0.8939 | 990.5
303.15 K, x1 = 0.9436 | 1020.3
303.15 K, x1 = 1 | 1056.5
313.15 K, x1 = 0.0495 | 652.7
313.15 K, x1 = 0.1 | 665.2
313.15 K, x1 = 0.2092 | 694.5
313.15 K, x1 = 0.3093 | 724.6
313.15 K, x1 = 0.4043 | 756.1
313.15 K, x1 = 0.4941 | 788.8
313.15 K, x1 = 0.6052 | 833.6
313.15 K, x1 = 0.7063 | 879.2
313.15 K, x1 = 0.8046 | 928.6
313.15 K, x1 = 0.9014 | 982.5
313.15 K, x1 = 0.9497 | 1011.6
313.15 K, x1 = 1 | 1043.4
318.15 K, x1 = 0.0773 | 654.9
318.15 K, x1 = 0.1163 | 664.6
318.15 K, x1 = 0.1621 | 676.6
318.15 K, x1 = 0.2689 | 706.8
318.15 K, x1 = 0.3288 | 725.3
318.15 K, x1 = 0.4097 | 752.4
318.15 K, x1 = 0.4753 | 776
318.15 K, x1 = 0.5256 | 795.2
318.15 K, x1 = 0.5452 | 803.1
318.15 K, x1 = 0.5879 | 820.6
318.15 K, x1 = 0.6449 | 845.2
318.15 K, x1 = 0.6976 | 869.3
318.15 K, x1 = 0.7615 | 900.4
318.15 K, x1 = 0.8039 | 922.2
318.15 K, x1 = 0.8422 | 942.9
318.15 K, x1 = 0.8808 | 964.3
318.15 K, x1 = 0.9311 | 993.8
318.15 K, x1 = 0.9657 | 1015.1
318.15 K, x1 = 1 | 1036.9

[2]
Conditions | excess molar enthalpy [kcal/mol]
x1 = 0.088 | 0.171
x1 = 0.1762 | 0.292
x1 = 0.2418 | 0.369
x1 = 0.3259 | 0.432
x1 = 0.4027 | 0.472
x1 = 0.4703 | 0.49
x1 = 0.5162 | 0.495
x1 = 0.5554 | 0.492
x1 = 0.6261 | 0.477
x1 = 0.6776 | 0.455
x1 = 0.7263 | 0.421
x1 = 0.7728 | 0.381
x1 = 0.8189 | 0.323
x1 = 0.866 | 0.262
x1 = 0.9005 | 0.204
x1 = 0.9393 | 0.13
x1 = 0.9822 | 0.0471
x1 = 1 | 0
